Data as given in patent publication US11331310B2, “Method of treating cocaine addiction” (MyMD Pharmaceuticals (Florida), Inc., priority 2015, dated 2022).
“Also recorded” adds a separate entry of the source.

What was measured:
MPTP-induced toxicity = settings: mice, cited from earlier work; for dopamine levels: MPTP
MAO-A [1] = biological target: T1, MAO-A (Homo sapiens, UniProt P21397); settings: cited from earlier work
T1 construct: purchased
T1 sequence (P21397 1-527): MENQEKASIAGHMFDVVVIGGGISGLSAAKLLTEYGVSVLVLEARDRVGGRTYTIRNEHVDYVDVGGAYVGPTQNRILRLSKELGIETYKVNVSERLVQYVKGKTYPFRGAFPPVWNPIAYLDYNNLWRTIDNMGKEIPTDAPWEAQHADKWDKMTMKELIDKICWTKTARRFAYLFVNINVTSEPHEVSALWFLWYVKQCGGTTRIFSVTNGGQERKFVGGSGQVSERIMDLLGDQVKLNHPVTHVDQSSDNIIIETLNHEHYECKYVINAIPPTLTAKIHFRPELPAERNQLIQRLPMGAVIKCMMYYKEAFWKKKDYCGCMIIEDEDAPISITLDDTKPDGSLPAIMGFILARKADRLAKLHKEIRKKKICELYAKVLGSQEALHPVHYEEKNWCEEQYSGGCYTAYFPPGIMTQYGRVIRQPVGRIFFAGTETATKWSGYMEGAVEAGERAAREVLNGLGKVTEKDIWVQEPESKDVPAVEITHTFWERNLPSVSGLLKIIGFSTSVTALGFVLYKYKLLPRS

MAO-B [2] = biological target: T2, MAO-B (Homo sapiens, UniProt P27338); settings: cited from earlier work
T2 sequence (P27338 1-520): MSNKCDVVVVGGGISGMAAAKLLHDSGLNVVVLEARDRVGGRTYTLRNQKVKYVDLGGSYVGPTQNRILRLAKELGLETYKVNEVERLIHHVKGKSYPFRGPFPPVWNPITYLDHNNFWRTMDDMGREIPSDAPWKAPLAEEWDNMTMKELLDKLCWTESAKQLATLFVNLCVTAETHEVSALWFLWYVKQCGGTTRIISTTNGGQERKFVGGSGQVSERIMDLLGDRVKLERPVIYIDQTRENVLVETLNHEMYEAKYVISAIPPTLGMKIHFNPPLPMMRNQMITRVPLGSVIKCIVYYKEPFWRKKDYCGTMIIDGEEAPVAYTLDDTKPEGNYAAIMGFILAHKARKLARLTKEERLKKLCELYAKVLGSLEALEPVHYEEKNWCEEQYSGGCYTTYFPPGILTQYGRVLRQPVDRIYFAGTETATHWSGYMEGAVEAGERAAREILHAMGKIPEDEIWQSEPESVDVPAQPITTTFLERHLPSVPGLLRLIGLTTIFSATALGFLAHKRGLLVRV

MAO-A [3] = biological target: T1, MAO-A; test: MAO-Glo luminescent assay, MAO-A inhibition; assay type: biochemical
Description: (§1) This example describes experiments for determining monoamine oxidase (MAO) inhibition for isomyosmine and other alkaloids. MAOs are enzymes located on the outer membrane of mitochondria and are involved in the catabolism of monoamine neurotransmitters. There are two well-characterized isoenzymes: MAO-A, which predominantly catabolizes serotonin and norepinephrine, and MAO-B, which preferentially catabolizes benzylamine and phenylethylamine. Dopamine and tyramine are metabolized by both isoforms.
(§2) To detect the activity of MAO, a luminescent method (MAO-Glo Assay kit, from Promega, Cat #V1401) was used. In this method, a MAO substrate (a derivative of beetle luciferin provided in the kit) is mixed with the compound to be tested (in this case, myosmine and control compounds). Then, the MAO enzymes (either A or B, purchased separately) are added to the mixture and incubated with the reaction for 1 hour at room temperature. The MAO enzymes, if not inhibited by the test compound, will convert the substrate into methyl ester luciferin. Finally, a luciferin detection reagent (provided by the kit) is added (20 minutes at room temperature) to stop the MAO reaction and convert methyl ester luciferin into D-luciferin. […] The luminescent signal is measured and recorded using a luminometer. […]

MAO-B [4] = biological target: T2, MAO-B; test: MAO-Glo luminescent assay, MAO-B inhibition; assay type: biochemical; settings: 1 hour at room temperature, compared among five alkaloids
Description: as §1, §2

[5] = Oxygen saturation in individuals after oral administration; assay type: in vivo; settings: fourteen individuals, one hour after oral administration, 100-300 mg depending on body weight
Description: Increasing oxygen saturation levels is believed to make isomyosmine particularly effective for treating substance addictions, including tobacco/nicotine addictions, as well as addictions to heroin, cocaine, opioids, methadone, d-methamphetamine, barbiturates, alcohol, benzodiazepines, amphetamines, or buprenorphine. For example, substances such as cocaine are known to cause blood vessels to constrict, resulting in increased heartrate and blood pressure and increased stress on the heart's ability to circulate blood and oxygen through the body. Increasing oxygen saturation levels may, among other things, counteract these types of effects associated with substance abuse by increasing blood oxygen levels, aiding in the treatment of the underlying addiction.

SMILES	dopamine levels (MPTP-induced toxicity)	decrease in dopamine metabolite levels induced by MPTP (MPTP-induced toxicity)	MAO inhibitory effects against MAO-A (MAO-A [1])	MAO inhibitory effects against MAO-B (MAO-B [2])	further results
c1ccc(-c2ccncc2)cc1 [4-phenylpyridine]	no significant effect	prevented the decrease			
c1cncc([C@@H]2CCCCN2)c1 [anabasine]			exhibited MAO inhibitory effects	exhibited MAO inhibitory effects	
C1=CCC(c2cccnc2)NC1 (stereo not drawn) [anatabine]			exhibited MAO inhibitory effects	exhibited MAO inhibitory effects	
C1=NC(c2cccnc2)CC1 (stereo not drawn) [isomyosmine, 3-(3,4-dihydro-2H-pyrrol-2-yl)-pyridine]					inhibition at 2000 µM (MAO-A [3]; 2 mM concentration (2,000 micromolar)): ~50%; inhibition of the enzymatic activity of MAO-A (in words, curve position in FIG. 1) (MAO-A [3]; 1 hour at room temperature, compared among five alkaloids): most potent of the five; also recorded: potent inhibitor; inhibition of the activity of MAO-B (in words, FIG. 2) (MAO-B [4]): potent inhibitor; inhibition of the activity of MAO-B (in words, FIG. 2) (MAO-B [4]; listed as Isomyosmine): most potent among the five alkaloids tested; oxygen saturation (%) [5]: dramatically increase
CN1CCCC1c1cccnc1 (stereo not drawn) [nicotine]	no significant effect	prevented the decrease			
c1cncc([C@@H]2CCCN2)c1 [nornicotine]			exhibited MAO inhibitory effects	exhibited MAO inhibitory effects	
